From patent US20150218534A1, “MODIFIED DNA POLYMERASE” (TOYOBO CO., LTD., priority 2012, published 2015)

Test system: bisulfite-treated human genomic DNA (MINT1, RAR, THBS1, MINT31)
Test: PCR amplification of bisulfite-treated DNA
Assay type: biochemical
Conditions: 40 cycles (FIG. 12)
Experimental: Using bisulfite-treated DNA as a template and various primers, the difference in PCR amplification was compared. For comparison, KOD mutant (Y7A/V93K) and KOD (wild-type), each mixed with 1 μg of a KOD antibody per U of the enzyme, and Taq DNA polymerase mixed with an antibody (a mixture of equal amounts of Taq DNA polymerase (produced by Toyobo Co. Ltd.) and Anti-Taq High (produced by Toyobo Co. Ltd.)) were used.
The bisulfite-treated DNA used was human genomic DNA (produced by Roche) that had been treated with a MethylCode Bisulfite Conversion Kit of Invitrogen.
For PCR with the KOD mutant (Y7A/V93K) and PCR with the KOD, a buffer, MgSO4, and dNTPs included in KOD-Plus-Ver. 2 (produced by Toyobo Co. Ltd.) were used. 50 μl of individual reaction solutions containing 1× PCR buffer, 1.5 mM MgSO4, dNTPs (dATP, dTTP, dCTP, dGTP) in an amount of 0.2 mM, primers (SEQ ID NOs: 42 and 43 for amplification of MINT1; SEQ ID NOs: 44 and 45for amplification of RAR; SEQ ID NOs: 46 and 47 for amplification of THBS1; SEQ ID NOs: 48 and 49 for amplification of MINT31) in an amount of 15 pmol, 1 μl of bisulfite-treated DNA extract, and 1 U of each respective enzyme mixed with the antibody were used. PCR was performed using a GeneAmp PCR system 9700 (Applied Biosystems) on the following schedule: preliminary reaction at 94° C. for 2 minutes, followed by 40 cycles, each cycle consisting of 98° C. for 10 seconds, 55° C. for 15 seconds, and 68° C. for 1 minute.
For PCR with the Taq DNA polymerase, 50 μl of a reaction solution containing 1× buffer included in Blend Taq (product of Toyobo), dNTPs (dATP, […], dCTP, dGTP) in an amount of 0.2 mM, primers in an amount of 15 pmol (the same as above), 1 μl of bisulfite-treated DNA extract, and 2.5 U of the enzyme mixed with the antibody was used. […]
After the completion of each individual reaction, each of the resulting reaction solutions was analyzed using a DNA-1000 kit for MultiNA (produced by Shimadzu Corporation) to confirm amplified DNA fragments.

KOD Y7A/V93K: modified KOD DNA polymerase with Y7A and V93K
amplification of bisulfite-treated DNA: stable amplification was confirmed
